Test results as given in patent EP4613273A1, “TREATMENT OF BONE LOSS” (priority 2024, dated 2025).
Structures can show the parent of a compound that is named as a salt. Where two headings read alike, the source gives them in different places.

Key:
[1] = human healthy volunteers, cited from earlier work; for MIV-701/MIV06404 ratio: single oral administration
[2] = Plasma pharmacokinetic of MIV-701 after single and repeated oral administration of MIV-701 besylate salt in healthy cats; format: in vivo; details: for Cmax at 312 h / Tmax at 312 h / AUC(0-inf) at 312 h / AUC(0-t) at 312 h / half-life at 312 h / Cmax / Tmax at 0 h / AUC(0-inf) / AUC(0-t) / half-life: cat; for AUC(0-inf) at 312 h / AUC(0-inf): read-out: AUC(0-infini) (converted); for AUC(0-t) at 312 h / AUC(0-t): read-out: AUC(0-tfinal) (converted); for half-life at 312 h / half-life: read-out: T1/2 elimination (converted)
Method: MIV-701 besylate salt was administered once daily for 14 days to 4 healthy cats at three increasing doses: 2 mg/kg, 10 mg/kg and 50 mg/kg.
The three doses were consecutively administered for 14 days with a >5-day washout period between two dose levels.
Each treatment period can be resumed as follows: • J0 (T+24h): first administration, withdrawal of blood samples for pharmacokinetic and plasma CTX-1 assessment (pre-dose and 0.5h, 1h, 2h, 4h, 8h and 24h after first drug administration), pre-dose blood samples for hematology and clinical biochemistry (baseline values for safety assessment). • J5 ([…]) and J8: pre-dose blood samples. • J13: last administration, withdrawal of plasma samples for pharmacokinetic and plasma CTX-1 assessment (pre-dose and 0.5h, 1h, 2h, 4h, 8h and 24h after last drug administration), pre-dose sampling for hematology and clinical biochemistry (baseline values for safety assessment). • J15 to J≥19: washout period.
After centrifugation of blood samples plasma aliquots were stored at -20°C._After thawing on ice, 30 µL of plasma were transferred into 1.5 ml microtube containing 270 µL acetonitrile. Microtubes were then vigorously stirred and then centrifuged (12000 rpm, 10 min, 4°C) and the supernatant was transferred in Matrix tube for LC-MS/MS analysis.
A calibration curve (9 points, 3 to 30 000 nM) was obtained by spiking plasma samples from naive cats with appropriate quantities of Compound I.
Equipment: LC-MS/MS Acquity I Class-Wevo TQD (Waters®): - Acquity I Class ∘ Column: Waters® Acquity BEH C8, 50*2.1mm, 1.7 µm (40°C) ∘ Mobile phase: • ▪ A: Ammonium Formate 5mM, pH=3.8 • ▪ B: Ammonimuformate 5 mM in CH3CN 5% aqueous, pH=3.8 ∘ Injection volume: 1 µL ∘ Speed: 600 µL/min ∘ Gradient: […]
- Xevo TQD • ∘ Source temperature: 150°C • ∘ Desolvatation temperature: 600°C • ∘ Cone gaz speed: 50L/h • ∘ Desolvatation gaz speed: 1200L/h - Analytes MS characteristics
Terminal elimination half-life (t1/2) was calculated according to the following formula: T1/2 elimination = ln(2)/kel [formula] kel= slope of ln(C)=f(temps) calculated on the last points of the curves (elimination phase)/ MIV-701 exposure (Area Under the Curve; AUCt) was calculated according to trapezoidal method accroding to the following formula: AUCt−>inf = [C]t /kel [formula]

[3] = system: dogs with alveolar bone loss induced by spontaneously developed periodontal disease; assay: Alveolar bone loss parameters by CBCT-scan and X-ray radiography in dogs with periodontal disease; format: in vivo; details: CTX-1 responders, Day-90 vs Day-0
Method: The present study was performed on 10 Beagle dogs suffering from alveolar bone loss induced by spontaneously developed periodontal disease. All dogs were treated with MIV-701 besylate salt for minimum 30 day and maximum 90 days, depending on the tolerance at intermediate visits. The product is administrated to the dog by its owner at home, once a day with a meal.
There were two treatment groups: • Group A (5 dogs) with a dose of 25 mg/kg. • Group B (5 dogs) with a dose of 50 mg/kg.
Dental imaging was performed at visit V2 (Day 0) and visit V5 (90t 3 days).
Each time a full mouth CBCT-scan was performed together with dental radiographs of selected teeth for the study. The results of these exams were recorded in IMAGING FORM by the Investigator.
Full mouth cone-beam computed tomography (NewTom, 5G XL, Bologna, Italy) was performed at visit V2 (Day 0) and visit V5 (Day 90t 3 days).
The exam was performed only in dogs recruited in Polish site. It was performed under general anesthesia of Investigator's choice and aim at alveolar bone loss measurement.
Scans were analyzed with the use of NNT viewer, software provided by the manufacturer (version: 10.1; QR SRL, Verona, Italy). At both times, the volumetric assessment of dentition was set up for the same high-resolution mode (10 × 10 cm with 0.15 mm layers). Both readings were made in the same orientations of axes and locations measuring alveolar bone loss with the use of maximum magnification (Gawro, Strøm et Nemec 2022). To evaluate the effect of the treatment on the alveolar bone loss, the following three measurements (De Faria Vasconcelos et al. 2012) were performed on the selected teeth for the study: • 1. The height of the alveolar crest (AC), measured from the cementoenamel junction (CEJ) to the upper rim of AC (Figure 12A). • 2. The depth of the defect, measured from the CEJ to the bottom of the defect (Figure 12B). • 3. The width of the defect, measured from the highest point of the AC to the dental root adjacent to the defect (Figure 12C).
Dental radiography was performed at visit V2 (Day 0) and visit V5 (Day 90t 3 days).
To evaluate the effect of the treatment on the alveolar bone loss, the following three measurements (De Faria Vasconcelos et al. 2012) were performed on the selected teeth for the study: • 1. The heigh of the alveolar crest (AC), measured from the cementoenamel junction (CEJ) to the upper rim of AC (Figure 13A). • 2. The depth of the defect, measured from the CEJ to the bottom of the defect (Figure 13B). • 3. The width of the defect, measured from the highest point of the AC to the dental root adjacent to the defect (Figure 13C).
These measurements were performed using digital ruler of the imaging software or external program (i.e., Image J) and recorded in the IMAGING FORM.

[4] = plasma MIV-701, oral 2 mg/kg once daily, Day 13 (repeated)
[5] = plasma MIV-701, oral 2 mg/kg, Day 0 (single)
[6] = plasma MIV-701, oral 10 mg/kg once daily, Day 13 (repeated)
[7] = plasma MIV-701, oral 10 mg/kg, Day 0 (single)
[8] = plasma MIV-701, oral 50 mg/kg, Day 0 (single)

CC(C)C[C@H](NC(=O)c1ccc(-c2csc(N3CCN(C)CC3)n2)cc1)C(=O)N1C[C@H](F)[C@H]2OCC(O)(O)[C@H]21 [MIV-701 besylate salt, N-[(S)-1-((3aS,6S,6aS)-6-Fluoro-S-oxo-hexahydro-furo[3,2-b]pyrrole-4-carbony)-3-methyl-butyl]-4-[2-(4-methyl-piperazin-1-yl)-thiazol-4-yl]-benzamide benzenesulphonate]
MIV-701/MIV-06404 exposure ratio ([1]; single administrations, dose not stated): 0.03 | MIV-701/MIV06404 ratio ([1]; 25 mg): 0.01 | MIV-701/MIV06404 ratio ([1]; 75 mg): 0.02 | MIV-701/MIV06404 ratio ([1]; 150 mg): 0.03 | MIV-701/MIV06404 ratio ([1]; 300 mg): 0.04 | plasma exposure (AUC) at D13 higher than AUC at D0 ([2]; 2 mg/kg): 1.2 folds | plasma exposure (AUC) at D13 higher than AUC at D0 ([2]; 10 mg/kg): 1.9 folds | Cmax at 312 h [2, 4]: 141 nM | Tmax at 312 h [2, 4]: 2 h | AUC(0-inf) at 312 h [2, 4]: 0.984 µM·h | AUC(0-t) at 312 h [2, 4]: 0.972 µM·h | half-life at 312 h [2, 4]: 3.9 h | Cmax [2, 5]: 122 nM | Tmax at 0 h [2, 5]: 2 h | AUC(0-inf) [2, 5]: 0.811 µM·h | AUC(0-t) [2, 5]: 0.808 µM·h | half-life [2, 5]: 2.9 h | Cmax at 312 h [2, 6]: 663 nM | Tmax at 312 h [2, 6]: 0.5 h | AUC(0-inf) at 312 h [2, 6]: 5.3 µM·h | AUC(0-t) at 312 h [2, 6]: 5.07 µM·h | half-life at 312 h [2, 6]: 5.7 h | Cmax [2, 7]: 249 nM | Tmax at 0 h [2, 7]: 2 h | AUC(0-inf) [2, 7]: 2.85 µM·h | AUC(0-t) [2, 7]: 2.78 µM·h | half-life [2, 7]: 4.6 h | Cmax [2, 8]: 3890 nM | Tmax at 0 h [2, 8]: 2 h | AUC(0-inf) [2, 8]: 34.8 µM·h | AUC(0-t) [2, 8]: 33.6 µM·h | half-life [2, 8]: 4.9 h | Kel (4-24h) [2, 4]: -0.179 h⁻¹ | Kel (4-24h) [2, 5]: -0.236 h⁻¹ | Kel (4-24h) [2, 6]: -0.122 h⁻¹ | Kel (4-24h) [2, 7]: -0.152 h⁻¹ | Kel (4-24h) [2, 8]: -0.142 h⁻¹ | depth of the alveolar bone defect ([3]; CBCT-images): Only favorable trends | width of the alveolar bone defect ([3]; CBCT-scan and X-ray radiography): significantly reduced | height of the alveolar crest ([3]; CBCT-scan images): Significant improvements | depth of the alveolar bone loss ([3]; X-ray images): significant improvements | height of the alveolar crest ([3]; X-ray radiography): only favorable trends
